Inconclusive results and toxic doses are left out. Rule as the data show it: active = T/C of 150% or more; inactive = T/C below 125%.
Tested on: L1210 leukemia ip in BDF1 mice, survival T/C
Assay: NCI In Vivo Anticancer Drug Screen. Data for tumor model L1210 Leukemia (intraperitoneal) in B6D2F1 (BDF1) mice
Settings: endpoint: mean survival time, higher = longer survival
Outline: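 Value reflects the ratio of survival in compound-treated mice to survival in vehicle-treated controls, with both groups carrying the same transplanted tumor.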

[1] = dose: 100.0 mg/kg/injection, schedule: Q01DX009 (ip), vehicle: Klucel (hydroxypropylcellulose) (HPC)
[2] = dose: 100.0 mg/kg/injection, schedule: Q04DX003 (ip), vehicle: Klucel (hydroxypropylcellulose) (HPC)
[3] = dose: 200.0 mg/kg/injection, schedule: Q04DX003 (ip), vehicle: Klucel (hydroxypropylcellulose) (HPC)
[4] = dose: 400.0 mg/kg/injection, schedule: Q04DX003 (ip), vehicle: Klucel (hydroxypropylcellulose) (HPC)
[5] = dose: 100.0 mg/kg/injection, schedule: Q01DX001 (ip), vehicle: saline with Tween-80
[6] = dose: 100.0 mg/kg/injection, schedule: Q04DX002 (ip), vehicle: saline with Tween-80
[7] = dose: 200.0 mg/kg/injection, schedule: Q01DX001 (ip), vehicle: saline with Tween-80
[8] = dose: 200.0 mg/kg/injection, schedule: Q04DX002 (ip), vehicle: saline with Tween-80
[9] = dose: 400.0 mg/kg/injection, schedule: Q04DX002 (ip), vehicle: saline with Tween-80
[10] = dose: 200.0 mg/kg/injection, schedule: Q01DX009 (ip), vehicle: Klucel (hydroxypropylcellulose) (HPC)
[11] = dose: 400.0 mg/kg/injection, schedule: Q01DX009 (ip), vehicle: Klucel (hydroxypropylcellulose) (HPC)
[12] = dose: 100.0 mg/kg/injection, schedule: Q01DX001 (ip), vehicle: carboxymethylcellulose (CMC)
[13] = dose: 200.0 mg/kg/injection, schedule: Q01DX001 (ip), vehicle: carboxymethylcellulose (CMC)
[14] = dose: 400.0 mg/kg/injection, schedule: Q01DX001 (ip), vehicle: carboxymethylcellulose (CMC)

Measured: T/C

CCOC(=O)NC(=S)[S][Sb]([S]C(=S)NC(=O)OCC)[S]c1nc2ccc(N=Nc3ccc(NS(=O)(=O)c4ccc(NC(=O)C(Cl)Cl)cc4)cc3)cc2s1
inactive: dose: 100.0 mg/kg/injection, schedule: Q01DX001 (ip), vehicle: steriod suspending solution 95 % of control | dose: 200.0 mg/kg/injection, schedule: Q01DX001 (ip), vehicle: steriod suspending solution 105 % of control | dose: 400.0 mg/kg/injection, schedule: Q01DX001 (ip), vehicle: steriod suspending solution 92 % of control

O=C(Nc1cc(Cl)cc2c1-c1c(Cl)cc(Cl)cc1C2)C(Cl)Cl
inactive: dose: 50.0 mg/kg/injection, schedule: Q04DX003 (ip), vehicle: Klucel (hydroxypropylcellulose) (HPC) 100 % of control | [1] 97 % of control | [2] 92 % of control | [3] 94 % of control | [4] 100 % of control

Cc1nc2ccccc2cc1CO
inactive: dose: 100.0 mg/kg/injection, schedule: Q04DX003 (ip), vehicle: saline with Tween-80 105 % of control | dose: 200.0 mg/kg/injection, schedule: Q04DX003 (ip), vehicle: saline with Tween-80 102 % of control | dose: 400.0 mg/kg/injection, schedule: Q04DX003 (ip), vehicle: saline with Tween-80 102 % of control

C[CH2][Ge]([CH2]C)[CH2]C.C[CH2][Ge]([CH2]C)[CH2]C
inactive: [5] 94 % of control | [6] 95 % of control | [7] 90 % of control | [8] 95 % of control | [9] 92 % of control

COc1ccc([N+](=O)[O-])cc1NC(=O)c1ccc(Cl)cc1
inactive: dose: 50.0 mg/kg/injection, schedule: Q01DX009 (ip), vehicle: Klucel (hydroxypropylcellulose) (HPC) 96 % of control | [1] 94 % of control | [10] 95 % of control | [11] 94 % of control

Cc1nc(C#N)c(C#N)nc1-c1ccccc1
inactive: [6] 95 % of control | [8] 95 % of control | [9] 95 % of control

O=C1CCCN(c2ccccc2)c2ccccc21
inactive: dose: 100.0 mg/kg/injection, schedule: Q01DX009 (ip), vehicle: other 100 % of control | dose: 100.0 mg/kg/injection, schedule: Q04DX003 (ip), vehicle: other 98 % of control | dose: 200.0 mg/kg/injection, schedule: Q01DX009 (ip), vehicle: other 98 % of control | dose: 200.0 mg/kg/injection, schedule: Q04DX003 (ip), vehicle: other 109 % of control | dose: 400.0 mg/kg/injection, schedule: Q01DX009 (ip), vehicle: other 96 % of control | dose: 400.0 mg/kg/injection, schedule: Q04DX003 (ip), vehicle: other 104 % of control

O=C(Nc1cccc(F)c1)OCCOc1ccccc1
inactive: dose: 100.0 mg/kg/injection, schedule: Q01DX009 (ip), vehicle: gum acacia 93 % of control | dose: 200.0 mg/kg/injection, schedule: Q01DX009 (ip), vehicle: gum acacia 102 % of control | dose: 400.0 mg/kg/injection, schedule: Q01DX009 (ip), vehicle: gum acacia 96 % of control

Cc1ccc(S(=O)(=O)C2CCCCC2)cc1
inactive: dose: 50.0 mg/kg/injection, schedule: Q01DX001 (ip), vehicle: carboxymethylcellulose (CMC) 96 % of control | [12] 107 % of control | [13] 102 % of control | [14] 102 % of control

O=S(=O)(Cl)c1ccccc1Cl
inactive: dose: 50.0 mg/kg/injection, schedule: Q01DX001 (ip), vehicle: Klucel (hydroxypropylcellulose) (HPC) 101 % of control

Cc1cc(C)c(NS(=O)(=O)c2ccccc2)c(C)c1Br
inactive: dose: 75.0 mg/kg/injection, schedule: Q04DX003 (ip), vehicle: Klucel (hydroxypropylcellulose) (HPC) 95 % of control | dose: 150.0 mg/kg/injection, schedule: Q04DX003 (ip), vehicle: Klucel (hydroxypropylcellulose) (HPC) 94 % of control | dose: 300.0 mg/kg/injection, schedule: Q04DX003 (ip), vehicle: Klucel (hydroxypropylcellulose) (HPC) 94 % of control

C(Cc1ccccc1)=Nc1ccc(N=CCc2ccccc2)cc1
inactive: dose: 100.0 mg/kg/injection, schedule: Q01DX001 (ip), vehicle: saline 103 % of control | dose: 200.0 mg/kg/injection, schedule: Q01DX001 (ip), vehicle: saline 112 % of control | dose: 400.0 mg/kg/injection, schedule: Q01DX001 (ip), vehicle: saline 110 % of control

Cc1ccc(NC(=O)c2ccccc2C(=O)O)cc1Cl
inactive: [1] 93 % of control | [2] 96 % of control | [10] 98 % of control | [3] 93 % of control | [11] 95 % of control | [4] 96 % of control

CCCCCCCCCCCCCCCCOC(=O)CC(=O)OCCCCCCCCCCCCCCCC
inactive: dose: 100.0 mg/kg/injection, schedule: Q01DX001 (ip), vehicle: other 86 % of control | dose: 200.0 mg/kg/injection, schedule: Q01DX001 (ip), vehicle: other 100 % of control | dose: 400.0 mg/kg/injection, schedule: Q01DX001 (ip), vehicle: other 108 % of control

CS/C([S-])=N/[NH-].CS/C([S-])=N/[NH-].[Pd]
inactive: dose: 3.13 mg/kg/injection, schedule: Q01DX009 (ip), vehicle: saline with Tween-80 98 % of control | dose: 6.25 mg/kg/injection, schedule: Q01DX009 (ip), vehicle: saline with Tween-80 100 % of control | dose: 12.5 mg/kg/injection, schedule: Q01DX009 (ip), vehicle: saline with Tween-80 89 % of control

COc1cc(OC)c(OC)cc1C=NC1CCCCCCC1
inactive: dose: 50.0 mg/kg/injection, schedule: Q01DX009 (ip), vehicle: saline with Tween-80 91 % of control | dose: 100.0 mg/kg/injection, schedule: Q01DX009 (ip), vehicle: saline with Tween-80 102 % of control | dose: 200.0 mg/kg/injection, schedule: Q01DX009 (ip), vehicle: saline with Tween-80 102 % of control

C/C(=N\Nc1ccc([N+](=O)[O-])cc1[N+](=O)[O-])C(F)(F)F
inactive: dose: 100.0 mg/kg/injection, schedule: Q01DX009 (ip), vehicle: saline sonified 95 % of control | [2] 94 % of control | dose: 200.0 mg/kg/injection, schedule: Q01DX009 (ip), vehicle: saline sonified 98 % of control | [3] 104 % of control | dose: 400.0 mg/kg/injection, schedule: Q01DX009 (ip), vehicle: saline sonified 95 % of control | [4] 104 % of control

COc1cc(/C=N\Nc2ccccc2)ccc1OC(=O)c1ccccc1
inactive: [6] 91 % of control | [8] 91 % of control | [9] 98 % of control

CC#CCOCC1CN(C)C(=O)O1 (configuration not stated)
inactive: dose: 25.0 mg/kg/injection, schedule: Q01DX009 (ip), vehicle: saline 95 % of control | dose: 50.0 mg/kg/injection, schedule: Q01DX009 (ip), vehicle: saline 98 % of control | dose: 50.0 mg/kg/injection, schedule: Q04DX003 (ip), vehicle: saline 106 % of control | dose: 100.0 mg/kg/injection, schedule: Q01DX009 (ip), vehicle: saline 92 % of control | dose: 100.0 mg/kg/injection, schedule: Q04DX003 (ip), vehicle: saline 101 % of control | dose: 200.0 mg/kg/injection, schedule: Q01DX009 (ip), vehicle: saline 90 % of control | dose: 200.0 mg/kg/injection, schedule: Q04DX003 (ip), vehicle: saline 104 % of control | dose: 400.0 mg/kg/injection, schedule: Q01DX009 (ip), vehicle: saline 95 % of control | dose: 400.0 mg/kg/injection, schedule: Q04DX003 (ip), vehicle: saline 101 % of control

CCN(CC)CCOc1ccc(C=O)cc1
inactive: dose: 100.0 mg/kg/injection, schedule: Q04DX002 (ip), vehicle: saline 99 % of control | dose: 200.0 mg/kg/injection, schedule: Q04DX002 (ip), vehicle: saline 95 % of control

C=CCC(CC)C(=O)NC(=O)N1CCCc2ccccc21 (configuration not stated)
inactive: [5] 91 % of control | [7] 86 % of control

BrCC(Br)c1ccccc1 (configuration not stated)
inactive: [2] 91 % of control | [3] 91 % of control | [4] 98 % of control

Oc1ccccc1/C=N/Sc1ccccc1.Oc1ccccc1/C=N/Sc1ccccc1.[Ni+2]
inactive: dose: 100.0 mg/kg/injection, schedule: Q04DX002 (ip), vehicle: Klucel (hydroxypropylcellulose) (HPC) 94 % of control | dose: 200.0 mg/kg/injection, schedule: Q04DX002 (ip), vehicle: Klucel (hydroxypropylcellulose) (HPC) 94 % of control | dose: 400.0 mg/kg/injection, schedule: Q04DX002 (ip), vehicle: Klucel (hydroxypropylcellulose) (HPC) 105 % of control

CC(=O)Nc1cc(C)c(C=O)cc1C
inactive: [12] 88 % of control | [13] 108 % of control | [14] 92 % of control

O=C1c2ccccc2C(=O)N1Cc1c(Cl)cccc1[N+](=O)[O-]
inactive: [1] 107 % of control | [10] 103 % of control | [11] 92 % of control

Reference: PubChem BioAssay AID248 (DTP/NCI, 2004)
